Bridge positions count the residues as written; N and C are the ends. Side chains are listed from the residue outwards. Peptide text beside a SMILES is read from it. * marks the point of attachment. Butanoyl(4-(4-I-phenyl)) = O=C(CCCc1ccc(I)cc1)*; PEG2 = NCCOCCOCCC(=O)O
Assays:
[1] = Pharmacokinetics in female Balb/c mice; assay type: in vivo, mouse
ADRB2 = ADRB2 (Homo sapiens, UniProt P07550); test: Safetyscan47 GPCR cAMP, Antagonist; assay type: cell-based
HTR3A = target: T1, HTR3A (Homo sapiens, UniProt P46098); test: Safetyscan47 Ion Channel, Blocker; assay type: cell-based
T1 sequence (P46098 24-478): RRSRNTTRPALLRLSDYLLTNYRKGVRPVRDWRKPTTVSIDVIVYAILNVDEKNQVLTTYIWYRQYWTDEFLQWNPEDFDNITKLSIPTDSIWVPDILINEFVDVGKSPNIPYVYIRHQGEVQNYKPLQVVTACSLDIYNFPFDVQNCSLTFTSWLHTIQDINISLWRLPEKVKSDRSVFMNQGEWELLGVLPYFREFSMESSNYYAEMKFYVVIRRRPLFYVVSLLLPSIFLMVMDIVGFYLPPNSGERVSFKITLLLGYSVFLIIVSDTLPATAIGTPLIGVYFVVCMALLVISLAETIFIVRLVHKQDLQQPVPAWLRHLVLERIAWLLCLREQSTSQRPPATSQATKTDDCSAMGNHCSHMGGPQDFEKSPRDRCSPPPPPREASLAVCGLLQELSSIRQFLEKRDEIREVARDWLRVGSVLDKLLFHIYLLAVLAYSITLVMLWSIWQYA

KvLQT1/minK = KvLQT1/minK (Homo sapiens, UniProt P15382+P51787); test: Safetyscan47 Ion Channel, Opener; assay type: cell-based
NMDAR (1A/2B) = NMDAR (1A/2B) (Homo sapiens, UniProt Q05586+Q13224); test: Safetyscan47 Ion Channel, Opener; assay type: cell-based
AR = target: T2, AR (Homo sapiens, UniProt P10275); test: Safetyscan47 NHR Nuclear Translocation, Agonist; assay type: cell-based
T2 sequence (P10275 1-920): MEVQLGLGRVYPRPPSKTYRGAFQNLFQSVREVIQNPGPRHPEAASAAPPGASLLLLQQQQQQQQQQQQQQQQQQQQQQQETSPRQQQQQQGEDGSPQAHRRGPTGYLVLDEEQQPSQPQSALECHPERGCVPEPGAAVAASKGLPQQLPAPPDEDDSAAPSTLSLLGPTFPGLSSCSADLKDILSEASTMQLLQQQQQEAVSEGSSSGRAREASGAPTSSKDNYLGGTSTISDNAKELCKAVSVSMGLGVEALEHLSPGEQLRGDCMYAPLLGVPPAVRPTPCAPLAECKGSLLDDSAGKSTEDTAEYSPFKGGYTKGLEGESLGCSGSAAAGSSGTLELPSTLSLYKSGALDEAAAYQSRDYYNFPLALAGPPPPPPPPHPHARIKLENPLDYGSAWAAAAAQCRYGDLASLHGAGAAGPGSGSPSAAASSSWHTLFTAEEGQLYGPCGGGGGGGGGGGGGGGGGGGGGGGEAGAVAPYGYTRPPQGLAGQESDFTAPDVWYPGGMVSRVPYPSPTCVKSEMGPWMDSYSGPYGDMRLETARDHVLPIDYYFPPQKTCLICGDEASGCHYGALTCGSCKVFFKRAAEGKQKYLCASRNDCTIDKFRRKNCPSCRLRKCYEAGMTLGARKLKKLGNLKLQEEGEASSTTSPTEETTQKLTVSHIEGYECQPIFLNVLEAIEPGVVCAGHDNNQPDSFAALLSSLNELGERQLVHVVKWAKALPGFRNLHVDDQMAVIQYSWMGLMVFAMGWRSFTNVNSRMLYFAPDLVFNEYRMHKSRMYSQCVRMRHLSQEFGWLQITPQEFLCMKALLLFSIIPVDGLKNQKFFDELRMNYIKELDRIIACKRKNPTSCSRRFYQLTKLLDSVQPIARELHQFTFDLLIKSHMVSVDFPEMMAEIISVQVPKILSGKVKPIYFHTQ

[2] = Table S3B, IP 30 mg/kg, mouse, animal 2F001
[3] = Table S3B, IP 30 mg/kg, mouse, animal 2F002
[4] = Table S3B, IP 30 mg/kg, mouse, animal 2F003
[5] = Table S3B, IP 30 mg/kg, mouse, animal 2F004
[6] = Table S3B, IP 30 mg/kg, mouse, animal 2F005
[7] = Table S3B: IP 30 mg/kg, Mean N=5
[8] = Table S3D, IP 10 mg/kg, mouse, animal 1F001
[9] = Table S3D, IP 10 mg/kg, mouse, animal 1F002
[10] = Table S3D, IP 10 mg/kg, mouse, animal 1F003
[11] = Table S3D, IP 10 mg/kg, mouse, animal 1F004
[12] = Table S3D, IP 10 mg/kg, mouse, animal 1F005
[13] = Table S3D, SC 10 mg/kg, mouse, animal 2F001
[14] = Table S3D, SC 10 mg/kg, mouse, animal 2F002
[15] = Table S3D, SC 10 mg/kg, mouse, animal 2F003
[16] = Table S3D, SC 10 mg/kg, mouse, animal 2F004
[17] = Table S3D, SC 10 mg/kg, mouse, animal 2F005
[18] = female, Balb/c, mouse, plasma, ip, 10 mg/kg
[19] = female, Balb/c, mouse, plasma, ip, 30 mg/kg
[20] = female, Balb/c, mouse, plasma, sc, 10 mg/kg

Sequence of ADRB2 (P07550 whole entry): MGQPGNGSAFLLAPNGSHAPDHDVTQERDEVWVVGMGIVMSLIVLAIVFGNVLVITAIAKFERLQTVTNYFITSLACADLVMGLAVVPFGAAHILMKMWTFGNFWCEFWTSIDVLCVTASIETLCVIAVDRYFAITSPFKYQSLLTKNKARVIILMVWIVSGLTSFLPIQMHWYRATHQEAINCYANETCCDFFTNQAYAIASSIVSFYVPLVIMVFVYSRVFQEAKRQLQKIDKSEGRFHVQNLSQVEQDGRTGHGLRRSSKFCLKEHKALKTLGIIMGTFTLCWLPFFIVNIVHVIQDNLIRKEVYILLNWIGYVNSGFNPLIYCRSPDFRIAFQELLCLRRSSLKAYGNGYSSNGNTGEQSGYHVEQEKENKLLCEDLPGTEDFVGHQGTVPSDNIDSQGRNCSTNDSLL
Sequence of KvLQT1/minK (P51787 whole entry): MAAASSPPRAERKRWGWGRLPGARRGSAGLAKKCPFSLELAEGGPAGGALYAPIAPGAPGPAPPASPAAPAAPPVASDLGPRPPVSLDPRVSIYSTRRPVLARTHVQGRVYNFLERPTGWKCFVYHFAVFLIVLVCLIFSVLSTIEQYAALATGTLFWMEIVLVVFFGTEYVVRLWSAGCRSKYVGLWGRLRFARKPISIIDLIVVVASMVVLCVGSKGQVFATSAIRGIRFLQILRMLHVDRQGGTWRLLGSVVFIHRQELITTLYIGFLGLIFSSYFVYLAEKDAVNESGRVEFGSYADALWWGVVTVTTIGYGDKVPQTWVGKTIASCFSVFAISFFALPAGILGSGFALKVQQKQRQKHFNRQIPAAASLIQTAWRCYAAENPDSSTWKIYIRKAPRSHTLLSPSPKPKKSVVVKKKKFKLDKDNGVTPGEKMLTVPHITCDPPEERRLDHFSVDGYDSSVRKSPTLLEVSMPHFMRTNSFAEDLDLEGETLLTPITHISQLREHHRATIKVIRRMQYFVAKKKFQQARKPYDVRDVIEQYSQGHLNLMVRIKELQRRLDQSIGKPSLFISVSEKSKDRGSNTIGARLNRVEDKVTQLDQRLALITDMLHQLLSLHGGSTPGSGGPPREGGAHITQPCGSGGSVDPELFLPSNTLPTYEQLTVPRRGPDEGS
Sequence of NMDAR (1A/2B) (Q13224 27-1484, other chains not shown): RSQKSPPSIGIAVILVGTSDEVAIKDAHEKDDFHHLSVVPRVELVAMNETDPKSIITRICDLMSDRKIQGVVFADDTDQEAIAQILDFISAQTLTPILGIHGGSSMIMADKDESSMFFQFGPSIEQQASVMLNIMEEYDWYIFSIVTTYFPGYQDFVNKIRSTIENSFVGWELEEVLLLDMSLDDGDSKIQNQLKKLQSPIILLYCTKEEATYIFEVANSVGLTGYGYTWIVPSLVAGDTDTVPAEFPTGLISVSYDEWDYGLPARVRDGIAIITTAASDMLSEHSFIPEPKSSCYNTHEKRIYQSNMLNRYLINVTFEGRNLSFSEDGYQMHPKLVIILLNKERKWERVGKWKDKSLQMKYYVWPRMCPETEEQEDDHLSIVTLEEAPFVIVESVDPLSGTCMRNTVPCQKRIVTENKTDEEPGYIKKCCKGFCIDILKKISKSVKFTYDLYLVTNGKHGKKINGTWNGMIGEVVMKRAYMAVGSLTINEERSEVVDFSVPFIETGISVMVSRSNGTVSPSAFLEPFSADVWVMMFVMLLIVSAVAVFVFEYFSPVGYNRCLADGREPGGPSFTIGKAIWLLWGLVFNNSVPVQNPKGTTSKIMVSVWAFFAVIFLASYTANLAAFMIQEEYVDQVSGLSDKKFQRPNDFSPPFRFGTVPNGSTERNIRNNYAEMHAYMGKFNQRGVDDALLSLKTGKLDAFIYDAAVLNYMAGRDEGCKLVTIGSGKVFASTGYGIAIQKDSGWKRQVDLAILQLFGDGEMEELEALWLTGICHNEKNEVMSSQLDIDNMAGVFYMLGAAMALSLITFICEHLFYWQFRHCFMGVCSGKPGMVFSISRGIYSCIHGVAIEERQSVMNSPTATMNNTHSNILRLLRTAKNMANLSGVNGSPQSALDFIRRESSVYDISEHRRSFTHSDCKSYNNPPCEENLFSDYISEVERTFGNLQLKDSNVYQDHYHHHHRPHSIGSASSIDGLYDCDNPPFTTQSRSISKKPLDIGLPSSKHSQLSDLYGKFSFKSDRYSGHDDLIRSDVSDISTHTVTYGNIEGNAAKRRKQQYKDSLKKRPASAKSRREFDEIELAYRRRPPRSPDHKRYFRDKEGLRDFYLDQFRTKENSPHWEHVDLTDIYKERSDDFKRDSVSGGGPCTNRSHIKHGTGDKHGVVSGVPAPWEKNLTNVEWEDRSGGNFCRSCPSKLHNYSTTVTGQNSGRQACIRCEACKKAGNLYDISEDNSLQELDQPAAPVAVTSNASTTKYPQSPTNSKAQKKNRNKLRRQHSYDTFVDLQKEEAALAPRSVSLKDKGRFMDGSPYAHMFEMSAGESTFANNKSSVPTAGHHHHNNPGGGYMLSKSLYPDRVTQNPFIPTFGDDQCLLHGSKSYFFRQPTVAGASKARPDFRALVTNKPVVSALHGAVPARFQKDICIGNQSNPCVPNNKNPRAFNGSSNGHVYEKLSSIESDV

With `CC[C@H](C)[C@H](NC(=O)[C@H](CC(C)C)NC(=O)[C@H](CC(=O)O)NC(=O)CNC(=O)[C@H](CCCNC(=N)N)NC(=O)[C@@H](NC(=O)[C@H](Cc1ccccc1)NC(=O)[C@H](Cc1ccc(O)cc1)NC(=O)[C@@H]1CCC(=O)NCC(=O)NCC(=O)N[C@@H](CCCNC(=N)N)C(=O)NCC(=O)N[C@@H](Cc2c[nH]cn2)C(=O)N[C@@H](C(C)C)C(=O)N2CCC[C@H]2C(=O)N1)C(C)C)C(=O)N[C@@H](CO)C(=O)N[C@@H](Cc1ccccc1)C(=O)N[C@@H](Cc1ccc(O)cc1)C(=O)N[C@@H](CCCCNC(=O)CCOCCOCCNC(=O)CCCc1ccc(I)cc1)C(=O)O` [lassotide 47] (GGRGHVPEYFVRGDLISFYK([PEG2-Butanoyl(4-(4-I-phenyl))])-OH; lactam N-8) the “improvement in t1/2 vs 36” value ([1]; 30 mg/kg IP, mice) was 9 fold, the “increase in AUC vs 36” value ([1]; 30 mg/kg IP, mice) was 39 fold and the Cl ([1]; Mouse, 30 mg/kg IP, mean) was 0.3 mL/min/kg. For the same compound, the Vz ([1]; Mouse, 30 mg/kg IP, mean) was 0.1 L/kg, the AUClast [1, 2] was 1750000 and the CL/F [1, 2] was 0.271. The Cmax [1, 2] was 167000, the Tmax [1, 2] was 2.0 and the Vz/F [1, 2] was 118. It also gave a t1/2 [1, 2] of 5.0, an AUClast [1, 3] of 1710000 and a CL/F [1, 3] of 0.278. It also gave a Cmax [1, 3] of 182000, a Tmax [1, 3] of 2.0 and a Vz/F [1, 3] of 128. It also gave a t1/2 [1, 3] of 5.3, an AUClast [1, 4] of 1270000 and a CL/F [1, 4] of 0.356. For the same compound, the Cmax [1, 4] was 96500, the Tmax [1, 4] was 4.0 and the Vz/F [1, 4] was 215. The t1/2 [1, 4] was 7.0, the AUClast [1, 5] was 1810000 and the CL/F [1, 5] was 0.266. The Cmax [1, 5] was 151000, the Tmax [1, 5] was 2.0 and the Vz/F [1, 5] was 109. For the same compound, the t1/2 [1, 5] was 4.7, the AUClast [1, 6] was 2150000 and the CL/F [1, 6] was 0.219. The Cmax [1, 6] was 231000, the Tmax [1, 6] was 4.0 and the Vz/F [1, 6] was 105. For the same compound, the t1/2 [1, 6] was 5.5, the Vz/F [1, 7] was 135 and the t1/2 [1, 7] was 5.52 h. The AUCINF [1, 8] was 531 µg·h/mL, the AUClast [1, 8] was 517000 ng·h/mL and the CL/F [1, 8] was 0.314 mL/min/kg. It also gave a Cmax [1, 8] of 74800 ng/mL, a Tmax [1, 8] of 2.0 h and a Vz/F [1, 8] of 122 mL/kg. For the same compound, the t1/2 [1, 8] was 4.5 h, the AUCINF [1, 9] was 482 µg·h/mL and the AUClast [1, 9] was 468000 ng·h/mL. For the same compound, the CL/F [1, 9] was 0.346 mL/min/kg, the Cmax [1, 9] was 75600 ng/mL and the Tmax [1, 9] was 2.0 h. The Vz/F [1, 9] was 128 mL/kg, the t1/2 [1, 9] was 4.3 h and the AUCINF [1, 10] was 604 µg·h/mL. The AUClast [1, 10] was 587000 ng·h/mL, the CL/F [1, 10] was 0.276 mL/min/kg and the Cmax [1, 10] was 57500 ng/mL. For the same compound, the Tmax [1, 10] was 2.0 h, the Vz/F [1, 10] was 108 mL/kg and the t1/2 [1, 10] was 4.5 h. It also gave an AUCINF [1, 11] of 628 µg·h/mL, an AUClast [1, 11] of 603000 ng·h/mL and a CL/F [1, 11] of 0.265 mL/min/kg. The Cmax [1, 11] was 56300 ng/mL, the Tmax [1, 11] was 2.0 h and the Vz/F [1, 11] was 112 mL/kg. For the same compound, the t1/2 [1, 11] was 4.9 h, the AUCINF [1, 12] was 640 µg·h/mL and the AUClast [1, 12] was 631000 ng·h/mL. The CL/F [1, 12] was 0.260 mL/min/kg, the Cmax [1, 12] was 68400 ng/mL and the Tmax [1, 12] was 1.0 h. The Vz/F [1, 12] was 91.9 mL/kg, the t1/2 [1, 12] was 4.1 h and the AUCINF [1, 13] was 546 µg·h/mL. It also gave an AUClast [1, 13] of 528000 ng·h/mL, a CL/F [1, 13] of 0.305 mL/min/kg and a Cmax [1, 13] of 45700 ng/mL. The Tmax [1, 13] was 4.0 h, the Vz/F [1, 13] was 115 mL/kg and the t1/2 [1, 13] was 4.3 h. The AUCINF [1, 14] was 469 µg·h/mL, the AUClast [1, 14] was 455000 ng·h/mL and the CL/F [1, 14] was 0.355 mL/min/kg. The Cmax [1, 14] was 44700 ng/mL, the Tmax [1, 14] was 4.0 h and the Vz/F [1, 14] was 144 mL/kg. The t1/2 [1, 14] was 4.7 h, the AUCINF [1, 15] was 596 µg·h/mL and the AUClast [1, 15] was 567000 ng·h/mL. It also gave a CL/F [1, 15] of 0.280 mL/min/kg, a Cmax [1, 15] of 56800 ng/mL and a Tmax [1, 15] of 4.0 h. The Vz/F [1, 15] was 123 mL/kg, the t1/2 [1, 15] was 5.1 h and the AUCINF [1, 16] was 635 µg·h/mL. For the same compound, the AUClast [1, 16] was 609000 ng·h/mL, the CL/F [1, 16] was 0.262 mL/min/kg and the Cmax [1, 16] was 57900 ng/mL. It also gave a Tmax [1, 16] of 4.0 h, a Vz/F [1, 16] of 114 mL/kg and a t1/2 [1, 16] of 5.0 h. For the same compound, the AUCINF [1, 17] was 558 µg·h/mL, the AUClast [1, 17] was 541000 ng·h/mL and the CL/F [1, 17] was 0.299 mL/min/kg. The Cmax [1, 17] was 50000 ng/mL, the Tmax [1, 17] was 4.0 h and the Vz/F [1, 17] was 120 mL/kg. It also gave a t1/2 [1, 17] of 4.7 h, a t1/2 ([1]; Table S3D: IP 10 mg/kg, Mean N=5) of 4.46 h and an AUC(0-inf) [1, 18] of 577 µg·h/mL. It also gave an AUC(0-t) [1, 18] of 561 µg·h/mL, a CL/F [1, 18] of 0.292 mL/min/kg and a Cmax [1, 18] of 66500 ng/mL. It also gave a Tmax [1, 18] of 1.8 h, a Vd/F [1, 18] of 0.113 L/kg and a half-life [1, 18] of 4.5 h. For the same compound, the AUC(0-t) [1, 19] was 1740 µg·h/mL, the CL/F [1, 19] was 0.278 mL/min/kg and the Cmax [1, 19] was 166000 ng/mL. It also gave a Tmax [1, 19] of 2.8 h, an AUC(0-inf) [1, 20] of 561 µg·h/mL and an AUC(0-t) [1, 20] of 540 µg·h/mL. The CL/F [1, 20] was 0.3 mL/min/kg, the Cmax [1, 20] was 51000 ng/mL and the Tmax [1, 20] was 4 h. For the same compound, the Vd/F [1, 20] was 0.123 L/kg, the half-life [1, 20] was 4.75 h and the IC50 (ADRB2) was > 45 µM. The Emax (ADRB2; read-out: Max Response) was 32.8%, the IC50 (HTR3A) was > 45 µM and the Emax (HTR3A; read-out: Max Response) was 9.38%. For the same compound, the EC50 (KvLQT1/minK) was > 45 µM, the Emax (KvLQT1/minK; read-out: Max Response) was 0% and the EC50 (NMDAR (1A/2B)) was > 45 µM. For the same compound, the Emax (NMDAR (1A/2B); read-out: Max Response) was 3.52%, the EC50 (AR) was > 45 µM and the Emax (AR; read-out: Max Response) was 0%.
